pIC50, pKi: −log10 of the molar value. Activity calls are given as the source filed them. No cut-off for these calls is given here. Starred links: 1 amine or outer side, 2 acyl side, 3 side chain; linkers in the order of their positions; H or OH if unused. Non-standard residues stand in square brackets, D forms with d. Residues, ends and D or L forms follow the SMILES beside them. X1 = NCCCC[C@H](C(=O)[C@H](CO)N[*:1])C(=O)[*:2]
How the values were obtained:
Mu-type opioid receptor [1] = biological target: T1, Mu-type opioid receptor (Homo sapiens, UniProt P35372); assay: Inhibitory activity against non-selective opiate receptor
Mu-type opioid receptor [2] = biological target: T1, Mu-type opioid receptor; assay: Binding affinity towards non-selective opiate receptor
Mu-type opioid receptor [3] = biological target: T1, Mu-type opioid receptor; assay: (§1) Inhibitory activity against non-selective opiate receptor; NA=Not active
Mu-type opioid receptor [4] = biological target: T1, Mu-type opioid receptor; assay: Binding affinity towards non-selective opiate receptor; NA=Not active
Mu-type opioid receptor [5] = biological target: T1, Mu-type opioid receptor; assay: as §1; remark: listed apart in the source

T1 sequence (P35372 whole entry): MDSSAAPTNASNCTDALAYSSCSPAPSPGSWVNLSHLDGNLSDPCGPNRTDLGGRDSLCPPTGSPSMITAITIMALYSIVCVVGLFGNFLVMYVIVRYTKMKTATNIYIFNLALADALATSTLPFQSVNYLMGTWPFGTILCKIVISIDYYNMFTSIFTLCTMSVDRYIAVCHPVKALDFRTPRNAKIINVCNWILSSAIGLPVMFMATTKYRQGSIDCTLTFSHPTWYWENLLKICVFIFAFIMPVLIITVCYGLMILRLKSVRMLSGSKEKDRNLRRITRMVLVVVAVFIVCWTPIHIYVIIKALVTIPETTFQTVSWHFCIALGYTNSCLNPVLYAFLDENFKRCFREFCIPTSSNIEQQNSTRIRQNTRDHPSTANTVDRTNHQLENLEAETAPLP

Compound: CC[C@H](C)[C@H](NC(=O)[C@H](Cc1ccc(O)cc1)NC(=O)[C@H](Cc1c[nH]cn1)NC(=O)[C@H](CCCN=C(N)N)NC(=O)[C@H](CC(C)C)NC(=O)[C@H](C)NC(=O)[C@@H](N)CO)C(=O)N[C@@H](CC(N)=O)C(=O)N[C@@H](CC(C)C)C(=O)N[C@H](C(=O)N[C@H](C(=O)N[C@@H](CCCN=C(N)N)C(=O)N[C@@H](CCC(N)=O)C(=O)N[C@@H](CCCN=C(N)N)C(=O)N[C@@H](Cc1ccc(O)cc1)C(=O)O)[C@@H](C)O)[C@@H](C)CC
- pIC50 (Mu-type opioid receptor [1]): 5.00
- pKi (Mu-type opioid receptor [2]): 5.29

Compound: H-FPSKP-OH
- pIC50 (Mu-type opioid receptor [1]): 4.82
- pKi (Mu-type opioid receptor [2]): 5.12

Compound: NCCCC[C@H](C(=O)[C@H](CO)NC(=O)[C@@H]1CCCN1C(=O)[C@@H](N)Cc1ccc(O)cc1)C(=O)N1CCC[C@H]1C(=O)N[C@@H](CC(=O)O)C(=O)N[C@@H](CC(N)=O)C(=O)N1CCC[C@H]1C(=O)O (H-YP[X1]PDNP-OH)
- IC50 (Mu-type opioid receptor [3]): Not Active
- Ki (Mu-type opioid receptor [4]): Not Active

Compound: H-INLITRQRY-OH
- Ki (Mu-type opioid receptor [4]): Not Active
- NA (Mu-type opioid receptor [5]): inactive

Compound: NCCCC[C@H](C(=O)[C@H](CO)NC(=O)[C@@H]1CCCN1C(=O)[C@@H](N)Cc1ccc(O)cc1)C(=O)N1CCC[C@H]1C(=O)N[C@@H](CC(=O)O)C(=O)O (H-YP[X1]PD-OH)
- pIC50 (Mu-type opioid receptor [1]): 5.74
- pKi (Mu-type opioid receptor [2]): 6.00

Compound: NC(=O)[C@@H]1CCCN1C(=O)[C@H](Cc1ccccc1)NC(=O)[C@@H]1CCCN1C(=O)[C@@H](N)Cc1ccc(O)cc1 [MORPHICEPTIN] (H-YPFP-NH2)
- pIC50 (Mu-type opioid receptor [1]): 6.49
- pKi (Mu-type opioid receptor [2]): 6.82
